Patent US20040171073A1, “Compounds for modulation of cholesterol transport” (Massachusetts Institute of Technology, priority 2002, published 2004)

Biological target: T1, murine SR-BI (Mus musculus, UniProt Q61009)
T1 construct: expressed in transfected cells; host or cells: ldlA-7 (LDL receptor deficient Chinese hamster ovary cells)
T1 sequence (Q61009 1-509): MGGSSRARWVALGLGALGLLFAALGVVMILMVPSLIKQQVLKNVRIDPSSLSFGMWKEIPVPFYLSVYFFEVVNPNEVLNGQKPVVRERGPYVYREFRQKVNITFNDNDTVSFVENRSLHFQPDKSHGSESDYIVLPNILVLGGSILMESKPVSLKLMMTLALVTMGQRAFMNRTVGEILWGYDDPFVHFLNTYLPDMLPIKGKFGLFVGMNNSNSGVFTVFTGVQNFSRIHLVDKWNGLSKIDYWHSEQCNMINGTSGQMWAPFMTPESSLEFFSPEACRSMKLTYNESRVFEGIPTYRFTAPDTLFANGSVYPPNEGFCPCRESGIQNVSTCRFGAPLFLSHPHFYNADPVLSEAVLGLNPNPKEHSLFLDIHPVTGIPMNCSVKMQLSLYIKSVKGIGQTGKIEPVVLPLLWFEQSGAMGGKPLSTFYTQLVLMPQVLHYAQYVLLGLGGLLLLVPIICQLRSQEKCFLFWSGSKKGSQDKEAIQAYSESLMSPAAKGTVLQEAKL
Experiment: Uptake of DiI from DiI-HDL by ldlA[mSR-BI] cells (high throughput screen and concentration dependence)
Assay type: cell-based

[1] = DiI uptake from DiI-HDL, compounds at nominal 10 micromolar, ldlA[mSR-BI] cells

ENDOHDL Test 1	ENDOHDL Test 2	ENDOHDL Test 1 [1]	ENDOHDL Test 2 [1]	Compound
1.36	1.17			Clc1ccc(/N=C/c2ccc3c(c2)OCO3)nc1 [MIT 9952-176]
		1.13	1.17	O=C(O)c1cc(C(=O)O)nc(C(=O)O)c1 [MIT 9952-319]
0.76	0.46			Cc1cccc(C(=O)N/N=C/c2ccccc2Cl)c1 [MIT 9952-194]
0.79	0.73			O=C1C(=O)c2ccc(Oc3ccc([N+](=O)[O-])cc3)c3cccc1c23 [MIT 9952-95]
1.27	1.21			O=C(Cl)c1ccc2c(c1)C(=O)N(c1ccc(-c3ccnc(-c4ccc(N5C(=O)c6ccc(C(=O)Cl)cc6C5=O)cc4)n3)cc1)C2=O [MIT 9952-42]
0.54	0.54			C=CCN1C(=O)[C@H]2Cc3c([nH]c4ccccc34)[C@@H](c3ccc4c(c3)OCO4)N2C1=S [MIT 9952-179]
		0.51	0.53	CCOC(=O)C1=C(c2ccc(Cl)cc2)C(=O)c2ccccc2C1=O [MIT 9952-315]
		0.55	0.54	O=C(CSC1=NCCN1)Nc1ccccc1 [MIT 9952-314]
0.63	0.53			FC(F)(F)c1cccc(N2N=C(/C=C/c3ccccc3)CC2c2ccccc2)c1 (stereo not drawn) [MIT 9952-147]
0.53	0.39			COc1cc2ccccc2cc1C(=O)Nc1cccc(C)c1 [MIT 9952-237]
1.23	1.11			O=C(O)C(Cc1ccccc1)N1C(=O)CSC1=S (stereo not drawn) [MIT 9952-202]
1.23	1.36			CCOC(C(=O)OC(C)CN(C)C)(c1ccccc1)c1ccccc1.Cl (stereo not drawn) [MIT 9952-128]
0.68	0.49			CC(C)(C)c1ccc(C(=O)Nc2ccccc2C(=O)O)cc1 [MIT 9952-48]
0.61	0.59			CCOC(=O)c1c(C)n(-c2ccc(C)cc2)c2ccc(O)cc12 [MIT 9952-73]
		0.56	0.59	C/C(CCS(=O)(=O)c1ccc(C)cc1)=N\NC(N)=S [MIT 9952-333]
0.59	0.65			O=C(Nc1ccc(Cl)c(Cl)c1)c1ccccc1Br [MIT 9952-268]

Further lines, the compound ahead of its results:

Compound	ENDOHDL Test 1	ENDOHDL Test 2	ENDOHDL Test 1 [1]	ENDOHDL Test 2 [1]
O=C(NNC(=O)c1cccc2ccccc12)c1ccc(NC(=O)c2cccc3ccccc23)cc1 [MIT 9952-217]	0.57	0.53		
O=C(Nc1cccc(C(F)(F)F)c1)c1cccc(C(=O)Nc2cccc(C(F)(F)F)c2)n1 [MIT 9952-189]	0.56	0.58		
Cn1cc(C=O)c2cc(Br)ccc21 [MIT 9952-193]	0.66	0.69		
Cc1nn(-c2ccc([N+](=O)[O-])cc2)c(Cl)c1[N+](=O)[O-] [MIT 9952-103]	0.56	0.61		
COc1cc2c(-c3ccccc3)c(C)oc2cc1/C=N/NC(N)=S [MIT 9952-206]	0.56	0.52		
c1ccc(-c2cc3c(ccc4nonc43)[nH]2)cc1 [MIT 9952-262]	0.53	0.45		
O=[N+]([O-])c1ccc(-c2sc(/N=C/c3c(O)ccc4ccccc34)nc2-c2ccc(Cl)cc2)cc1 [MIT 9952-286]			0.62	0.64
Cc1ccc(C(C)C)cc1OCC(=O)N/N=C\c1cc([N+](=O)[O-])ccc1O [MIT 9952-154]	0.47	0.45		
O=C1CC(N2CCOCC2)C(=O)N1c1ccc(Br)cc1 (stereo not drawn) [MIT 9952-96]	1.32	1.17		
O=C(NC(NC(=S)Nc1cccc2ccccc12)C(Cl)(Cl)Cl)c1cccc([N+](=O)[O-])c1 (stereo not drawn) [MIT 9952-102]	0.56	0.49		
Clc1ccc(-c2nc3ccc4ccccc4c3c3c2CCCC3)cc1 [MIT 9952-156]	0.57	0.62		
